Results taken from patent US12076304B2, “Compositions comprising 15-HEPE and methods of treating or preventing hematologic disorders, and/or related diseases” (priority 2020, dated 2024).
Marks after values point to notes of the source that are not given here.

How the values were obtained:
Sprague Dawley rats [1] = assay: 26 week oral gavage toxicity study in rats: tolerability, clinical signs; assay type: in vivo; conditions: 6 g/kg/day oral gavage, replaced with 3 g/kg/day
Protocol: (§1) The test and control items were administered to the appropriate animals by once daily oral gavage 7 days a week for a minimum of 26 weeks. The volume for each animal was based on the most recent body weight measurements. The doses were given using a syringe with attached gavage cannula. The first day of dosing was designated as Day 1. The dosing formulations were removed from the refrigerator and stirred for at least 30 minutes before dosing. The dosing formulations were also stirred continuously during dosing.
Due to the onset of clinical signs, including hunched posture, erect fur and abnormal gait and body weight loss, animals 3206M, 3515F and 3703F were given a dosing holiday from Day 45 and remaining Group 3 animals were given a dosing holiday from Day 48. Animals will start dosing at the lower dose level (3000 mg/kg/day) from Day 64. The following tables illustrate the treatments (Table 23) and animal groupings (Table 24) that were used in the study.
Mortality/moribundity checks were made daily. […] Animals were not removed from the cage during observation, unless necessary for identification or confirmation of possible findings.
Post-dose observations were made regularly throughout the day. […] The onset, intensity, and duration of these signs were recorded; particular attention was paid to the animals during and for the first hour after dosing. […]

Sprague Dawley rats [2] = assay: 26 week oral gavage toxicity study in rats: coagulation; assay type: in vivo; conditions: 26 weeks; for Fibrinogen (FIB), Mean / Prothrombin Time (PT), Mean / Activated Partial Thromboplastic Time (APTT), Mean: male rats; for Fibrinogen (FIB), Mean: vehicle 2.61; for Prothrombin Time (PT), Mean: vehicle 10.25; for Activated Partial Thromboplastic Time (APTT), Mean: vehicle 12.92; for APTT compared to control / FIB concentration compared to control / PT compared to control: rats
Protocol: as §1
(§2) Sample Collection: Blood was collected via the tail vein unless immediately prior to necropsy, when blood was collected from the orbital sinus under non-recoverable isoflurane anesthesia. Blood was collected in ascending animal order unless samples were collected prior to necropsy where the order of euthanasia was followed. Additional blood samples were obtained (e.g. due to clotting of non-serum samples) if permissible sampling frequency and blood volume were not exceeded. After collection, samples were transferred to the appropriate laboratory for processing. Samples were collected according to the following table.
Coagulation: A 0.5 mL blood sample was collected using the anticoagulant 3.8% (w/v) trisodium citrate for processing to plasma. To assess coagulation the following coagulation parameters were measured.
(§3) Animals: The study used male and female Sprague Dawley rats purchased from Charles River UK Limited (Margate, Kent, UK). The target age at the initial dosing was 7-8 weeks. The target weight at the initial dosing was 175-300 g (males) and 120-250 g (females). Each animal was identified using a subcutaneously implanted electronic cylindrical, “glass-sealed” TROVAN microchip.

Sprague Dawley rats [3] = assay: 26 week oral gavage toxicity study in rats: haematology; assay type: in vivo; conditions: 26 weeks; for Red blood cell count (RBC), Mean / Red Cell Distribution Width (RDW), Mean / Reticulocyte count (RETIC), Mean: male rats; for Red blood cell count (RBC), Mean: vehicle 8.38; for Red Cell Distribution Width (RDW), Mean: vehicle 14.98; for Reticulocyte count (RETIC), Mean: vehicle 219.51
Protocol: as §1, §2
Hematology: A 0.5 mL blood sample was collected using the anticoagulant K2EDTA. Blood smears were labelled, stained, and stored. The blood smears were analyzed according to the following parameters.
as §3

[4] = 0.5% HPMC dosing formulations; same preparation and storage conditions (4° C.); concentrations bracketing those used; cited from earlier work
rats = conditions: oral once daily, 26 weeks, highest dose tested 1 mg/kg/day; cited from earlier work
[5] = system: TGF-β induced epithelial mesenchymal transition (EMT) protein production; assay: TGF-β induced EMT protein production in HepG2 cells; assay type: cell-based, human; conditions: increasing doses for 1 hour, then 200 pM TGF-β for 48 hours
Protocol: (§4) The effects of 15-HEPE on TGF-β-induced signaling and cellular responses were determined. To test the effect of 15-HEPE on TGF-β-induced signaling, the activities of 15-HEPE to regulate TGF-β-stimulated Smad2 phosphorylation and nuclear translocation, both of which are key signaling events leading to TGF-β-induced cellular responses, were tested. One important biological activity of TGF-β is transcriptional activation of genes responsible for epithelial-mesenchymal transition (EMT), which is a crucial event in wound healing, tissue fibrosis, and cancer progression. The effect of 15-HEPE on TGFβ-induced epithelial mesenchymal transition related proteins (such as fibronectin, PAI-1, and N-cadherin etc.) expression in HepG2 and LXR cells were assessed. HepG2 cells (human hepatoma cell line) were treated in increasing doses of 15-HEPE stage II in DMEM containing 0.1% of FBS for 1 hour and continually stimulated with or without 200 picomolar (pM) of TGF-β for 48 hours.
(§5) HepG2 cells (human hepatoma cell line) were treated in increasing doses of 15-HEPE stage II in DMEM containing 0.1% of FBS for 1 hour and continually stimulated with or without 200 picomolar (pM) of TGF-β for 48 hours. The two panels shown in FIG. 18A are two separate experiments run under the same experimental conditions.

[6] = system: TGF-β-stimulated intracellular signaling (SMAD2/3 phosphorylation); assay: TGF-β-stimulated SMAD2/3 phosphorylation in LX2 liver stellate cells; assay type: cell-based, human; conditions: 0 μM to 100 μM for 24 hours, then 30 min TGF-β
[7] = system: TβR-II (type II TGF-β receptor); assay: Sucrose density gradient analysis in Mv1Lu cells, TβR-II; assay type: cell-based, mink; conditions: for translocation and degradation of type II TGF-β receptors: summary of Example 3, free acid or ethyl ester form
Protocol: (§6) Sucrose gradient ultracentrifugation and confocal microscopy were used to identify 15-HEPE induced microdomain translocation of TGF-β receptors […]. Sucrose density gradient analysis of TGF-β receptors was conducted in the plasma membranes of Mv1Lu cells (mink lung epithelial cell) treated with 100 μM of 15-HEPE and an equal volume of DMSO (dimethyl sulfoxide) at 37° C. for 0, 1, 4, and 24 hours, and the cell lysates from these treated cells were subjected to sucrose density gradient ultracentrifugation. The sucrose gradient fractions were then analyzed by Western blot analysis using anti-Tβ(type I TGF-β receptor), anti-TβR-II (type II TGF-β receptor), anti-TβR-III (type III TGF-β receptor, betaglycan), anti-EGFR (epidermal growth factor receptor), and anti-caveolin-1 antibodies. The lipid raft/caveolae, and non-lipid raft microdomain localization of TβR-I, TβR-II, TβR-III, EGFR and caveolin-1 in the plasma membrane of untreated cells or cells treated with 15-HEPE were assessed to determine the effects of 15-HEPE on the membrane microdomain localization of the TGF-β receptors.
A 15-HEPE sucrose density gradient analysis of TGF-β receptors was conducted in the plasma membranes of mink lung epithelial cell (Mv1 Lu) cells treated with 100 μM of 15-HEPE and an equal volume of dimethyl sulfoxide (DMSO) at 37° C. for 0, 1, 4, and 24 hours, and the cell lysates from these treated cells were subjected to sucrose density gradient ultracentrifugation. The sucrose gradient fractions were then analyzed by Western blot analysis using anti-TβR-I (type I TGF-β receptor—FIG. 18C), anti-TβR-II (type II TGF-β receptor-FIG. 18D), anti-TβR-III (type III TGF-β receptor, betaglycan-FIG. 18E), anti-EGFR (epidermal growth factor receptor-FIG. 18F), and anti-caveolin-1 antibodies (FIG. 18G). Fractions 4 to 5 contained lipid rafts/caveolae whereas fractions 7-10 were non-lipid raft fractions. […] Stars(*) indicate 15-HEPE increased abundance of TβR-I (24 hours) in the fraction in comparison with that of the control and shorter treatment durations (FIG. 18C). […] The triangles (▾) indicate translocation and decreased abundance of TβR-II in the fraction in comparison with control cells (FIG. 18D).

[8] = system: TβR-I (type I TGF-β receptor); assay: Sucrose density gradient analysis in Mv1Lu cells, TβR-I; assay type: cell-based, mink; conditions: 100 μM
Protocol: as §6, with “receptors. […]” for “receptors.”

type II TGF-β receptor = molecular target: T1, type II TGF-β receptor (Homo sapiens, UniProt P37173); assay: Type II TGF-β receptor degradation in HepG2 cells; assay type: cell-based; conditions: increasing doses for 1 hour, then 200 pM TGF-β for 48 hours
T1 construct: endogenous in cells; host or cells: HepG2
T1 sequence (P37173 23-567): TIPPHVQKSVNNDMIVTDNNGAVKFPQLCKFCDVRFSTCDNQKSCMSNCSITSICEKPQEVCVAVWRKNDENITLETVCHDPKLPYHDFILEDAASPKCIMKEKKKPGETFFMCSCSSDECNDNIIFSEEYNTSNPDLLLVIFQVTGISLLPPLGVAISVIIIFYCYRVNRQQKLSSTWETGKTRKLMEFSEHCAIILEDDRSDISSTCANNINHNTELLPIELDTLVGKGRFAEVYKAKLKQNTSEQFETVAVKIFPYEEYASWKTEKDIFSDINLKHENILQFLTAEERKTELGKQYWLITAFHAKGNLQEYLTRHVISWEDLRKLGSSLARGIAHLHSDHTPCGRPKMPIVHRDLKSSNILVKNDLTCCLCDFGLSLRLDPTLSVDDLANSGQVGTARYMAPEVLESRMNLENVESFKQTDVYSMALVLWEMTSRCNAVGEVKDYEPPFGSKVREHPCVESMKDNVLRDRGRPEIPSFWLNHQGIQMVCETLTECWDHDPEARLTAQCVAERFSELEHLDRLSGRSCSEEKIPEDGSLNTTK
Protocol: as §4, §5

caveolin-1 = assay: Sucrose density gradient analysis in Mv1Lu cells, caveolin-1; assay type: cell-based, mink; conditions: 100 μM, 0-24 hours
Protocol: as §6, with “receptors. […]” for “receptors.”

[9] = system: EGFR (epidermal growth factor receptor); assay: Sucrose density gradient analysis in Mv1Lu cells, EGFR; assay type: cell-based, mink; conditions: 100 μM, 0-24 hours
Protocol: as §6, with “receptors. […]” for “receptors.”

[10] = system: TβR-III (type III TGF-β receptor, betaglycan); assay: Sucrose density gradient analysis in Mv1Lu cells, TβR-III; assay type: cell-based, mink; conditions: 100 μM, 0-24 hours
Protocol: as §6, with “receptors. […]” for “receptors.”

[11] = 6000/3000 mg/kg/day oral gavage

## CC/C=C\C[C@H](O)/C=C/C=C\C/C=C\C/C=C\CCCC(=O)OCC [15(S)-HEPE EE]
Sprague Dawley rats [1]
  tolerability of the highest dose: not well tolerated
Sprague Dawley rats [2]; 2000 mg/kg/day oral gavage
  Fibrinogen (FIB), Mean: 2.35** g/L
  Prothrombin Time (PT), Mean: 10.69** sec
  Activated Partial Thromboplastic Time (APTT), Mean: 15.03* sec
Sprague Dawley rats [2]; [11]
  Fibrinogen (FIB), Mean: 2.26** g/L
  Prothrombin Time (PT), Mean: 10.81** sec
  Activated Partial Thromboplastic Time (APTT), Mean: 15.73** sec
Sprague Dawley rats [2]; 2 g/kg/day dose
  APTT compared to control: significant increase
  FIB concentration compared to control: significant decrease
  PT compared to control: significant increase
Sprague Dawley rats [2]; 3 g/kg/day dose
  APTT compared to control: significant increase
  FIB concentration compared to control: significant decrease
  PT compared to control: significant increase
Sprague Dawley rats [3]; 2000 mg/kg/day oral gavage
  Red blood cell count (RBC), Mean: 8.67 10^∧12/L
  Red Cell Distribution Width (RDW), Mean: 13.91** %
  Reticulocyte count (RETIC), Mean: 154.60* 10^∧9/L
Sprague Dawley rats [3]; [11]
  Red blood cell count (RBC), Mean: 8.81** 10^∧12/L
  Red Cell Distribution Width (RDW), Mean: 13.60** %
  Reticulocyte count (RETIC), Mean: 141.46** 10^∧9/L
Sprague Dawley rats [3]; rats, 2 g/kg/day dose
  RDW compared to control: significant decrease
  RETIC compared to control: significant decrease
Sprague Dawley rats [3]; rats, 3 g/kg/day dose
  RBC compared to control: significant increase
  RDW compared to control: significant decrease
  RETIC compared to control: significant decrease
[4]
  stability of the test item in the vehicle: stable
rats
  adverse effects at the highest dose tested: no adverse effects

## CC/C=C\C[C@H](O)/C=C/C=C\C/C=C\C/C=C\CCCC(=O)OCC [15-HEPE EE, 15-HEPE ethyl ester]
[5]
  TGF-β induced EMT (pro-fibrotic) protein production: blocked
[6]
  TGF-β-stimulated intracellular signaling (SMAD2/3 phosphorylation): inhibited
[7]
  translocation and degradation of type II TGF-β receptors: induced translocation and degradation

## CC/C=C\CC(O)/C=C/C=C\C/C=C\C/C=C\CCCC(=O)O (stereo not shown) [15-HEPE, 15-hydroxy-eicosa-5Z,8Z,11Z,13E,17Z-pentaenoic acid]
[8]; 37° C., 0, 1, 4, 24 hours
  abundance of TβR-I proteins: did not affect
[8]; 24 hours treatment
  translocation of TβR-I to lipid-raft: induced translocation
[5]
  TGF-β induced EMT (pro-fibrotic) protein production: blocked
[6]
  TGF-β-stimulated intracellular signaling (SMAD2/3 phosphorylation): inhibited
[7]; Mv1Lu cells, 100 μM, 24 hours treatment
  TβR-II degradation: induce degradation
[7]; Mv1Lu cells, 100 μM, from 1 to 4 hours
  TβR-II translocation: induced TβR-II translocation
[7]
  translocation and degradation of type II TGF-β receptors: induced translocation and degradation
Type II TGF-β receptor
  degradation of type II TGF-β receptor: induced degradation
caveolin-1
  localization and abundance of caveolin-1: did not change
[9]
  localization and abundance of EGFR: did not change
[10]
  localization and abundance of TβR-III: did not change
